From patent US12358896B2, “LRRK2 inhibitors and methods of making and using thereof” (DENALI THERAPEUTICS INC., priority 2019, dated 2025)

Target: T1, FLAG-tagged human LRRK2 with G2019S mutation (Homo sapiens, UniProt Q5S007, G2019S)
T1 construct: expressed in transfected cells; host or cells: HEK293 / 293T cells, transient transfection with pCMV-FLAG-G2019S
Assay: Inhibition of pSer935 in HEK293 cells with expressed G2019S LRRK2 (Biological Example 4)
Type: cell-based
Details: transfected 293T cells, 90 minutes compound treatment, MSD readout; read-out: HEK293T LRRK2 G2019S pS935
Experimental: In this assay, inhibition of phosphorylation of LRRK2 at residue serine 935 (pS935) by test compound was determined in HEK293 cells.
HEK293 cells were first transiently transfected with a plasmid harboring FLAG-tagged human LRRK2 cDNA with G2019S mutation (p.G2019S) under the control of CMV promoter for robust overexpression. The levels of phosphorylated Ser935 in G2019S expressing cells with or without compound treatment were measured by MSD using an anti-FLAG capture antibody and a phosho-specific anti-LRRK2 pS935 monoclonal detection antibody. The IC50 was determined by fitting a 10-point dose response data in duplicate with four parameter non-linear regression curve.
(Day 1) 293T cell seeding: 293T cells were seeded (1.4×10^6/well) into each well of a 6-well plate. After two days in culture, the cell number can grow into 5×10^6/well, so N+1 wells were seeded (enough for N 96 well assay plates).
(Day 2) 293T cell transfection: 5 μL of pCMV-FLAG-G2019S or pCMV-FLAG-WT LRRK2 (0.5 μg/μL) was added into 145 μL of DMEM medium, and mixed thoroughly by pipette up and down several times. 15 μL of SuperFect Transfection Reagent was added into samples, mixed thoroughly by pipetting up and down several times, and allowed to equilibrate at room temperature for 5-10 minutes. 0.5 mL of pre-warmed cell culture medium was added into samples, and mixed thoroughly by pipetting up and down several times. 650 μL of the mixture was added dropwise into each well of the 6 well plate, the plate was swirled to mix thoroughly, and incubated in a 37° C. incubator with a humidified atmosphere of 5% CO2 for 20-24 hours.
(Day 3) 293T cells seed into 96 well plates: Cells were harvested and resuspended in cell culture medium at 0.96×10^6 cells/mL density. 50 μL/well cells were plated onto 96-well cell culture plate (48,000 cells/well), and the plates were incubated in a 37° C. incubator with a humidified atmosphere of 5% CO2 for 20-24 hours.
(Day 4) Inhibitor Treatment and Cell Lysis: The compound destination plates were thawed at room temperature and centrifuged at 2000 rpm. 55 μL cell culture medium was added into compound destination plate, and the plate was warmed at 37° C.
50 μL of cell culture medium containing compounds was transferred into cell culture plate. Plates were incubated in a 37° C. incubator with a humidified atmosphere of 5% CO2 for 90 minutes, after which all of compound-containing medium was completely aspirated manually with 300 μL pipette. 100 μL/well of Lysis Buffer was added and the plates sealed, shaken at 4° C. for 30 minutes, and stored at −20° C. until usage.
(Day 5) MSD procedure: 2 μg/25 μL/well of FLAG antibody diluted in PBS was added into the MSD plate, incubated for two hours at room temperature or overnight at 4° C. (in Day 4). 50 μL (3.9 μg/μL) of FLAG antibody plus 2.5 mL PBS, per 96 well plate, or 50 μL (3.9 μg/μL) anti-FLAG antibody plus 5 mL PBS per 384 well plate. The plates were centrifuged at 1000 rpm for 10 seconds and shaken with a plate shaker for 10 seconds.
Anti-FLAG antibody was discarded, and the wells were washed using multidrop, low speed, two times with 300 μL/well of wash buffer for a 96 well plate or three times with 70 μL/well of wash buffer for a 384 well plate. 50 μL/well of block buffer for a 96 well plate, or 25 μL/well of block buffer for a 384 well plate, was added and the plates were incubated for two hours at room temperature. The Block buffer was then discarded and the wells washed two times using multidrop, low speed, with 300 μL/well of wash buffer for a 96 well plate, or three times with 70 μL/well of wash buffer for a 384 well plate.
25 μL of cell lysate was transferred into a 96 well MSD plate, or 12.5 μL of cell lysate into 384 well MSD plate, and the plates were incubated for one hour at room temperature.
Note: The cell lysate should be thawed one hour prior to this step, the plate centrifuged at 1000 rpm for one minute, shaken for 30 seconds, and then unsealed for lysate transfer. […]

T1 sequence (Q5S007 whole entry G2019S): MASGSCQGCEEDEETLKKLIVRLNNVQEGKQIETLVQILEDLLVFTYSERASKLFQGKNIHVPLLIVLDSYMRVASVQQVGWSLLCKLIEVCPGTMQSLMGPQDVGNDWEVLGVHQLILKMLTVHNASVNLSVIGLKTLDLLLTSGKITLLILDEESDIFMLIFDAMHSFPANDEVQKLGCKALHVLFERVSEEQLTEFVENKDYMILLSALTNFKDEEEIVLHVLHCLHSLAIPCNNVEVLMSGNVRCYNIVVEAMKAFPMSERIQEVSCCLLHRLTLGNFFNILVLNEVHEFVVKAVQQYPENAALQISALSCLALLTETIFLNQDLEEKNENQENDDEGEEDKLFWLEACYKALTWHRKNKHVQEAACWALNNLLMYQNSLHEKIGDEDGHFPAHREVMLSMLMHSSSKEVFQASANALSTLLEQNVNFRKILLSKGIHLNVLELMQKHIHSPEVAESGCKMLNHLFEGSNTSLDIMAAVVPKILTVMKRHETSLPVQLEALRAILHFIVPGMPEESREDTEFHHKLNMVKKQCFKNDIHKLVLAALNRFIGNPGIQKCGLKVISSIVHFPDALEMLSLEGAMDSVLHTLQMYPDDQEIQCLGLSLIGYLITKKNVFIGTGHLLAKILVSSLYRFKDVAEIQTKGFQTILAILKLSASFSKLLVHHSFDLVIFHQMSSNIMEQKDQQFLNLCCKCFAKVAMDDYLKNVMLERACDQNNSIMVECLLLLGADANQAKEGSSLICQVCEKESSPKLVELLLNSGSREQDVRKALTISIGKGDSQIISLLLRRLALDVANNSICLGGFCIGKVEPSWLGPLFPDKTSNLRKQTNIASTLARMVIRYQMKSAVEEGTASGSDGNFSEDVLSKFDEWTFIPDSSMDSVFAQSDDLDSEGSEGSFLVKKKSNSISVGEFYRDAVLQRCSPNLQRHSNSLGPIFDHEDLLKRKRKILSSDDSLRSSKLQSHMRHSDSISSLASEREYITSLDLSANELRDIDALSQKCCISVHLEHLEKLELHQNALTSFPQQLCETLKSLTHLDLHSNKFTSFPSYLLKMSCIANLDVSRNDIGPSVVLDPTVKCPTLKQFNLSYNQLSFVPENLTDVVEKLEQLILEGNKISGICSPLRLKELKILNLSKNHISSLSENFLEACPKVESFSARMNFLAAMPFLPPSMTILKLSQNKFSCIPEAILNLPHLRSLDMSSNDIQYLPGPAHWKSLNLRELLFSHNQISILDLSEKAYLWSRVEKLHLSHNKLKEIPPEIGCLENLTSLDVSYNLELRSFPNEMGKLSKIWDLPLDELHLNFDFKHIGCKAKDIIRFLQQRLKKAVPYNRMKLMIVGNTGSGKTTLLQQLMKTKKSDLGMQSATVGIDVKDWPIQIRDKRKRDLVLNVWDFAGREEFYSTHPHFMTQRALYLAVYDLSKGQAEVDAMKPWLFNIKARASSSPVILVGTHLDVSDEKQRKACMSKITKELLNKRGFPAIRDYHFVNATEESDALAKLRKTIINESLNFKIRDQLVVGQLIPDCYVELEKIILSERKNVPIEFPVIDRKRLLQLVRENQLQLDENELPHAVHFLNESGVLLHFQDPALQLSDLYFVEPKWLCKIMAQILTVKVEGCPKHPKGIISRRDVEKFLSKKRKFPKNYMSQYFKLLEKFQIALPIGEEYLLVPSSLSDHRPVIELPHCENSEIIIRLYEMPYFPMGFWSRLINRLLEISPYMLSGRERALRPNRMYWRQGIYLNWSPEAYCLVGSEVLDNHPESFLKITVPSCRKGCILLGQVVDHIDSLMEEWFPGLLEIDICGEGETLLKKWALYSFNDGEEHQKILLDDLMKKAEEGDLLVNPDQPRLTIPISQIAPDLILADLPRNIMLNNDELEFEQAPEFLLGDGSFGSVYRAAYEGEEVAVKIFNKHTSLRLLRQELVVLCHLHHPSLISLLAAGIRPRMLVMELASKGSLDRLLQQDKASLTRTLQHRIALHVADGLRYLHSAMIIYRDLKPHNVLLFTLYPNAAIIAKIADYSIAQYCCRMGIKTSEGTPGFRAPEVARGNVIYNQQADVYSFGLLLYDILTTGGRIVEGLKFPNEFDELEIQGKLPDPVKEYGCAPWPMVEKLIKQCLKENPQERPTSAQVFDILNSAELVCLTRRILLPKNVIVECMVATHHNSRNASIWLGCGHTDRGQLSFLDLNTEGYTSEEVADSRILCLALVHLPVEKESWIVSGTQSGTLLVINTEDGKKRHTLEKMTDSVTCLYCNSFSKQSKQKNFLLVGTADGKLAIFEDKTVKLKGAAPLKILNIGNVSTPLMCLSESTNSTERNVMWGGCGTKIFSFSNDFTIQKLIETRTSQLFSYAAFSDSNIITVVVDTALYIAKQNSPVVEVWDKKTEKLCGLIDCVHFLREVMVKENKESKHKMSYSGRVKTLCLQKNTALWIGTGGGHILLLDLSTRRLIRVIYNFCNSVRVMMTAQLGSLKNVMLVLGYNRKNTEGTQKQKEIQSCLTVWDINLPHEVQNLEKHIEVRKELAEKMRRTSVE

SMILES	IC50
CCNc1nc(Nc2cn([C@H]3C[C@H]3C(N)=O)nc2C2CC2)ncc1C(F)(F)F (single isomer, unassigned) [Example 7, (1,2-cis)-2-(3-cyclopropyl-4-((4-(ethylamino)-5-(trifluoromethyl)pyrimidin-2-yl)amino)-1H-pyrazol-1-yl)cyclopropanecarboxamide]	1.83 nM
CCNc1nc(Nc2cc([C@H]3C[C@H]3C(N)=O)nn2C2CC2)ncc1C(F)(F)F [Comparative Example A, reference compound]	11.8 nM
